What was measured:
Experiment in all cases: NCI-60 SRB screen
Assay type in all cases: cell-based
SK-OV-3 = system: SK-OV-3
K-562 = system: K-562
MCF7 = system: MCF7
EKVX = system: EKVX
OVCAR-5 = system: OVCAR-5
NCI-H226 = system: NCI-H226
CCRF-CEM = system: CCRF-CEM
HOP-62 = system: HOP-62
M14 = system: M14
SK-MEL-5 = system: SK-MEL-5
A549/ATCC = system: A549/ATCC
SN12C = system: SN12C
[1] = Homo sapiens, read-out: LC50 (the source's name)

Work on `COc1ccc2[nH]c(=O)c(/C=C/C(=O)c3ccccc3OC)cc2c1` [CTR-20, (E)-6-Methoxy-3-(3-(2-methoxyphenyl)-3-oxoprop-1-enyl) quinolin-2(1H)-one] yielded a Log10GI50 (SK-OV-3) of -5.65 Molar, a Log10LC50 (SK-OV-3) of -4.44 Molar and a Log10TGI (SK-OV-3) of -4.89 Molar. The TGI (SK-OV-3) was 1.28E-5 Molar, the “Growth Percent” value (SK-OV-3; 1.00E-5 Molar) was 6.12% and the GI50 (SK-OV-3; Homo sapiens) was 2230 nM. For the same molecule, the CC50 (SK-OV-3; [1]) was 36200 nM, the “Percent Growth” value (SK-OV-3; Log10 Concentration -4.0) was -99% and the “Percent Growth” value (SK-OV-3; Log10 Concentration -5.0) was 12%. The “Percent Growth” value (SK-OV-3; Log10 Concentration -6.0) was 70%, the “Percent Growth” value (SK-OV-3; Log10 Concentration -7.0) was 99% and the “Percent Growth” value (SK-OV-3; Log10 Concentration -8.0) was 87%. The Log10GI50 (K-562) was -6.79 Molar, the Log10LC50 (K-562) was > -4.00 Molar and the Log10TGI (K-562) was > -4.00 Molar. The TGI (K-562) was > 1.00E-4 Molar, the “Growth Percent” value (K-562; 1.00E-5 Molar) was 4.24% and the GI50 (K-562; Homo sapiens, K562) was 162 nM. For the same molecule, the CC50 (K-562; Homo sapiens, K562, read-out: LC50 (the source's name)) was > 100000 nM, the “Percent Growth” value (K-562; Log10 Concentration -4.0) was 4% and the “Percent Growth” value (K-562; Log10 Concentration -5.0) was 6%. The “Percent Growth” value (K-562; Log10 Concentration -6.0) was 11%, the “Percent Growth” value (K-562; Log10 Concentration -7.0) was 61% and the “Percent Growth” value (K-562; Log10 Concentration -8.0) was 101%. The Log10GI50 (MCF7) was -6.51 Molar, the Log10LC50 (MCF7) was > -4.00 Molar and the Log10TGI (MCF7) was -5.13 Molar. For the same molecule, the TGI (MCF7) was 7.48E-6 Molar, the “Growth Percent” value (MCF7; 1.00E-5 Molar) was 10.02% and the GI50 (MCF7; Homo sapiens) was 312 nM. The CC50 (MCF7; [1]) was > 100000 nM, the “Percent Growth” value (MCF7; Log10 Concentration -4.0) was -44% and the “Percent Growth” value (MCF7; Log10 Concentration -5.0) was -2%. The “Percent Growth” value (MCF7; Log10 Concentration -6.0) was 16%, the “Percent Growth” value (MCF7; Log10 Concentration -7.0) was 83% and the “Percent Growth” value (MCF7; Log10 Concentration -8.0) was 86%. The Log10GI50 (EKVX) was -5.69 Molar, the Log10LC50 (EKVX) was -4.25 Molar and the Log10TGI (EKVX) was -4.98 Molar. The TGI (EKVX) was 1.05E-5 Molar, the “Growth Percent” value (EKVX; 1.00E-5 Molar) was 37.76% and the GI50 (EKVX; Homo sapiens) was 2050 nM. For the same molecule, the CC50 (EKVX; [1]) was 55800 nM, the “Percent Growth” value (EKVX; Log10 Concentration -4.0) was -67% and the “Percent Growth” value (EKVX; Log10 Concentration -5.0) was 1%. The “Percent Growth” value (EKVX; Log10 Concentration -6.0) was 72%, the “Percent Growth” value (EKVX; Log10 Concentration -7.0) was 91% and the “Percent Growth” value (EKVX; Log10 Concentration -8.0) was 86%. It also gave a Log10GI50 (OVCAR-5) of -5.71 Molar, a Log10LC50 (OVCAR-5) of -4.33 Molar and a Log10TGI (OVCAR-5) of -4.98 Molar. The TGI (OVCAR-5) was 1.04E-5 Molar, the “Growth Percent” value (OVCAR-5; 1.00E-5 Molar) was 12.07% and the GI50 (OVCAR-5; Homo sapiens) was 1970 nM. The CC50 (OVCAR-5; [1]) was 46600 nM, the “Percent Growth” value (OVCAR-5; Log10 Concentration -4.0) was -75% and the “Percent Growth” value (OVCAR-5; Log10 Concentration -5.0) was 1%. The “Percent Growth” value (OVCAR-5; Log10 Concentration -6.0) was 70%, the “Percent Growth” value (OVCAR-5; Log10 Concentration -7.0) was 98% and the “Percent Growth” value (OVCAR-5; Log10 Concentration -8.0) was 93%. The Log10GI50 (NCI-H226) was -5.48 Molar, the Log10LC50 (NCI-H226) was > -4.00 Molar and the Log10TGI (NCI-H226) was -4.73 Molar. The TGI (NCI-H226) was 1.85E-5 Molar, the “Growth Percent” value (NCI-H226; 1.00E-5 Molar) was 38.93% and the GI50 (NCI-H226; Homo sapiens) was 3340 nM. The CC50 (NCI-H226; [1]) was > 100000 nM, the “Percent Growth” value (NCI-H226; Log10 Concentration -4.0) was -47% and the “Percent Growth” value (NCI-H226; Log10 Concentration -5.0) was 17%. The “Percent Growth” value (NCI-H226; Log10 Concentration -6.0) was 86%, the “Percent Growth” value (NCI-H226; Log10 Concentration -7.0) was 99% and the “Percent Growth” value (NCI-H226; Log10 Concentration -8.0) was 96%. For the same molecule, the Log10GI50 (CCRF-CEM) was -6.41 Molar, the Log10LC50 (CCRF-CEM) was > -4.00 Molar and the Log10TGI (CCRF-CEM) was > -4.00 Molar. For the same molecule, the TGI (CCRF-CEM) was > 1.00E-4 Molar, the “Growth Percent” value (CCRF-CEM; 1.00E-5 Molar) was 7.53% and the GI50 (CCRF-CEM; Homo sapiens) was 392 nM. For the same molecule, the LC50 (concentration causing 50% net cell kill) (CCRF-CEM; Homo sapiens) was > 100000 nM, the “Percent Growth” value (CCRF-CEM; Log10 Concentration -4.0) was 1% and the “Percent Growth” value (CCRF-CEM; Log10 Concentration -5.0) was 6%. The “Percent Growth” value (CCRF-CEM; Log10 Concentration -6.0) was 19%, the “Percent Growth” value (CCRF-CEM; Log10 Concentration -7.0) was 95% and the “Percent Growth” value (CCRF-CEM; Log10 Concentration -8.0) was 99%. It also gave a Log10GI50 (HOP-62) of -5.91 Molar, a Log10LC50 (HOP-62) of -4.63 Molar and a Log10TGI (HOP-62) of -5.27 Molar. For the same molecule, the TGI (HOP-62) was 5.32E-6 Molar, the “Growth Percent” value (HOP-62; 1.00E-5 Molar) was 8.67% and the GI50 (HOP-62; Homo sapiens) was 1240 nM. For the same molecule, the LC50 (HOP-62; Homo sapiens) was 23700 nM, the “Percent Growth” value (HOP-62; Log10 Concentration -4.0) was -97% and the “Percent Growth” value (HOP-62; Log10 Concentration -5.0) was -22%. For the same molecule, the “Percent Growth” value (HOP-62; Log10 Concentration -6.0) was 58%, the “Percent Growth” value (HOP-62; Log10 Concentration -7.0) was 95% and the “Percent Growth” value (HOP-62; Log10 Concentration -8.0) was 89%. The Log10GI50 (M14) was -6.56 Molar, the Log10LC50 (M14) was -4.62 Molar and the Log10TGI (M14) was -5.85 Molar. For the same molecule, the TGI (M14) was 1.41E-6 Molar, the “Growth Percent” value (M14; 1.00E-5 Molar) was 13.82% and the GI50 (M14; Homo sapiens) was 278 nM. The CC50 (M14; [1]) was 24000 nM, the “Percent Growth” value (M14; Log10 Concentration -4.0) was -93% and the “Percent Growth” value (M14; Log10 Concentration -5.0) was -23%. The “Percent Growth” value (M14; Log10 Concentration -6.0) was 4%, the “Percent Growth” value (M14; Log10 Concentration -7.0) was 87% and the “Percent Growth” value (M14; Log10 Concentration -8.0) was 92%. The Log10GI50 (SK-MEL-5) was -6.14 Molar, the Log10LC50 (SK-MEL-5) was -5.31 Molar and the Log10TGI (SK-MEL-5) was -5.68 Molar. The TGI (SK-MEL-5) was 2.08E-6 Molar, the “Growth Percent” value (SK-MEL-5; 1.00E-5 Molar) was 25.21% and the GI50 (SK-MEL-5; Homo sapiens) was 728 nM. For the same molecule, the CC50 (SK-MEL-5; [1]) was 4930 nM, the “Percent Growth” value (SK-MEL-5; Log10 Concentration -4.0) was -98% and the “Percent Growth” value (SK-MEL-5; Log10 Concentration -5.0) was -91%. The “Percent Growth” value (SK-MEL-5; Log10 Concentration -6.0) was 43%, the “Percent Growth” value (SK-MEL-5; Log10 Concentration -7.0) was 96% and the “Percent Growth” value (SK-MEL-5; Log10 Concentration -8.0) was 101%. For the same molecule, the Log10GI50 (A549/ATCC) was -5.68 Molar, the Log10LC50 (A549/ATCC) was -4.42 Molar and the Log10TGI (A549/ATCC) was -4.98 Molar. For the same molecule, the TGI (A549/ATCC) was 1.04E-5 Molar, the “Growth Percent” value (A549/ATCC; 1.00E-5 Molar) was 10.42% and the GI50 (A549/ATCC; Homo sapiens) was 2090 nM. The CC50 (A549/ATCC; [1]) was 37900 nM, the “Percent Growth” value (A549/ATCC; Log10 Concentration -4.0) was -88% and the “Percent Growth” value (A549/ATCC; Log10 Concentration -5.0) was 2%. The “Percent Growth” value (A549/ATCC; Log10 Concentration -6.0) was 73%, the “Percent Growth” value (A549/ATCC; Log10 Concentration -7.0) was 114% and the “Percent Growth” value (A549/ATCC; Log10 Concentration -8.0) was 106%. It also gave a Log10GI50 (SN12C) of -6.27 Molar, a Log10LC50 (SN12C) of -4.44 Molar and a Log10TGI (SN12C) of -4.99 Molar. For the same molecule, the TGI (SN12C) was 1.03E-5 Molar, the “Growth Percent” value (SN12C; 1.00E-5 Molar) was 8.57% and the GI50 (SN12C; Homo sapiens) was 537 nM. The CC50 (SN12C; [1]) was 36700 nM, the “Percent Growth” value (SN12C; Log10 Concentration -4.0) was -89% and the “Percent Growth” value (SN12C; Log10 Concentration -5.0) was 1%. The “Percent Growth” value (SN12C; Log10 Concentration -6.0) was 32%, the “Percent Growth” value (SN12C; Log10 Concentration -7.0) was 100% and the “Percent Growth” value (SN12C; Log10 Concentration -8.0) was 102%.

— PMC5578999, “Novel quinolone chalcones targeting colchicine-binding pocket kill multidrug-resistant cancer cells by inhibiting tubulin activity and MRP1 function” (Scientific Reports, 2017)
